# In PMC5513091, “A novel Alzheimer’s disease drug candidate targeting inflammation and fatty acid metabolism” (Alzheimer's Research & Therapy, 2017):
# Tested on: plasma metabolites
# Test: Metabolomic analysis of plasma
# Format: in vivo, mice
# Protocol: Metabolomic analyses were conducted at Metabolon (Durham, NC, USA) as described previously. For statistical analyses and data display, any missing values were assumed to be below the limits of detection and imputed with the compound minimum (minimum value imputation). An estimate of the FDR (Q value) was calculated to take into account the multiple comparisons that normally occur in metabolomics-based studies, with Q < 0.05 used as an indication of high confidence in a result. The MetaboAnalyst tool was used to generate heat maps.
# [1] = AD mice fed CAD-31 200 ppm 3 months vs AD
# [2] = WT control mice fed CAD-31 200 ppm 3 months vs control
smiles,measurement,setting,value
Cc1ccc(N(/N=C/c2cccc(OC(F)(F)F)c2)C(=O)C(F)(F)F)c(C)c1 [CAD-31],"1,2-dipalmitoyl-GPC (16:0/16:0) Fold Change AD+31/AD",[1],1.12
same,1-arachidonoyl-GPC (20:4n6)* Fold Change AD+31/AD,[1],1.17
same,1-myristoylglycerol (14:0) Fold Change AD+31/AD,[1],0.94
same,1-oleoylglycerol (18:1) Fold Change AD+31/AD,[1],1.17
same,1-palmitoyl-2-arachidonoyl-GPC (16:0/20:4n6) Fold Change AD+31/AD,[1],1.19
same,1-palmitoyl-2-stearoyl-GPC (16:0/18:0) Fold Change AD+31/AD,[1],1.23
same,1-stearoyl-GPE (18:0) Fold Change AD+31/AD,[1],1.22
same,2-palmitoylglycerol (16:0) Fold Change AD+31/AD,[1],1.22
same,3-acetylphenol sulfate Fold Change AD+31/AD,[1],0.59
same,3-ethylphenylsulfate Fold Change AD+31/AD,[1],2.39
same,3-hydroxy-3-methylglutarate Fold Change AD+31/AD,[1],1.53
same,3-hydroxybutyrate (BHBA) Fold Change AD+31/AD,[1],1.21
same,3-hydroxypyridine sulfate Fold Change AD+31/AD,[1],1.07
same,3-indoxyl sulfate Fold Change AD+31/AD,[1],1.15
same,4-hydroxyhippurate Fold Change AD+31/AD,[1],0.73
same,4-hydroxyphenylpyruvate Fold Change AD+31/AD,[1],1.05
same,5-hydroxyindoleacetate Fold Change AD+31/AD,[1],1.01
same,5-oxoproline Fold Change AD+31/AD,[1],1.02
same,7-ketodeoxycholate Fold Change AD+31/AD,[1],0.18
same,"9,10-DiHOME Fold Change AD+31/AD",[1],0.99
same,10-heptadecenoate (17:1n7) Fold Change AD+31/AD,[1],0.84
same,10-nonadecenoate (19:1n9) Fold Change AD+31/AD,[1],0.87
same,10-undecenoate (11:1n1) Fold Change AD+31/AD,[1],0.41
same,15-methylpalmitate Fold Change AD+31/AD,[1],0.68
same,17-methylstearate Fold Change AD+31/AD,[1],0.84
same,N2-acetyllysine Fold Change AD+31/AD,[1],1.12
same,N-acetyl-3-methylhistidine* Fold Change AD+31/AD,[1],0.86
same,N-acetylmethionine Fold Change AD+31/AD,[1],1.14
same,N-acetylphenylalanine Fold Change AD+31/AD,[1],1.1
same,N-acetylserine Fold Change AD+31/AD,[1],1.11
same,N-carbamoylaspartate Fold Change AD+31/AD,[1],1.97
same,N-delta-acetylornithine Fold Change AD+31/AD,[1],1.22
same,N-palmitoyl-sphinganine (d18:0/16:0) Fold Change AD+31/AD,[1],1.49
same,N-stearoyl-sphingosine (d18:1/18:0)* Fold Change AD+31/AD,[1],1.5
same,acetylcarnitine Fold Change AD+31/AD,[1],0.97
same,alpha-tocopherol Fold Change AD+31/AD,[1],1.29
same,arabonate/xylonate Fold Change AD+31/AD,[1],1.47
same,asparagine Fold Change AD+31/AD,[1],0.97
same,beta-muricholate Fold Change AD+31/AD,[1],0.41
same,caffeic acid sulfate Fold Change AD+31/AD,[1],1.19
same,carnosine Fold Change AD+31/AD,[1],0.68
same,chenodeoxycholate Fold Change AD+31/AD,[1],0.26
same,choline phosphate Fold Change AD+31/AD,[1],1.11
same,creatine Fold Change AD+31/AD,[1],1.02
same,dihydroorotate Fold Change AD+31/AD,[1],1.19
same,dopamine sulfate (2) Fold Change AD+31/AD,[1],2.01
same,equol glucuronide Fold Change AD+31/AD,[1],0.22
same,ergothioneine Fold Change AD+31/AD,[1],0.44
same,erythritol Fold Change AD+31/AD,[1],1.1
same,erythronate* Fold Change AD+31/AD,[1],1.14
same,gamma-glutamylglutamate Fold Change AD+31/AD,[1],0.97
same,gamma-glutamylglutamine Fold Change AD+31/AD,[1],0.99
same,gamma-glutamylleucine Fold Change AD+31/AD,[1],1.02
same,gamma-glutamylmethionine Fold Change AD+31/AD,[1],1.04
same,gamma-glutamylphenylalanine Fold Change AD+31/AD,[1],0.97
same,gamma-glutamylthreonine Fold Change AD+31/AD,[1],1.03
same,gamma-glutamyltryptophan Fold Change AD+31/AD,[1],0.78
same,gamma-glutamyltyrosine Fold Change AD+31/AD,[1],0.92
same,glucuronate Fold Change AD+31/AD,[1],1.18
same,glutamate Fold Change AD+31/AD,[1],0.99
same,"glutathione, oxidized (GSSG) Fold Change AD+31/AD",[1],1.46
same,glycosyl-N-palmitoyl-sphingosine (d18:1/16:0) Fold Change AD+31/AD,[1],1.29
same,glycosyl-N-stearoyl-sphingosine (d18:1/18:0) Fold Change AD+31/AD,[1],1.42
same,gulonate* Fold Change AD+31/AD,[1],1.59
same,hexanoylglycine Fold Change AD+31/AD,[1],1.03
same,indoleacetylglycine Fold Change AD+31/AD,[1],0.89
same,isobutyrylcarnitine Fold Change AD+31/AD,[1],2.26
same,linoleate (18:2n6) Fold Change AD+31/AD,[1],0.98
same,margarate (17:0) Fold Change AD+31/AD,[1],0.9
same,methionine sulfoxide Fold Change AD+31/AD,[1],1.26
same,methylmalonate (MMA) Fold Change AD+31/AD,[1],1.15
same,o-cresol sulfate Fold Change AD+31/AD,[1],1.63
same,oleoylcarnitine Fold Change AD+31/AD,[1],0.94
same,palmitoleoylcarnitine* Fold Change AD+31/AD,[1],0.97
same,palmitoyl dihydrosphingomyelin (d18:0/16:0)* Fold Change AD+31/AD,[1],1.32
same,palmitoyl sphingomyelin (d18:1/16:0) Fold Change AD+31/AD,[1],1.22
same,palmitoyl-palmitoyl-glycerol (16:0/16:0) [1]* Fold Change AD+31/AD,[1],1.17
same,pentadecanoate (15:0) Fold Change AD+31/AD,[1],0.95
same,phenol sulfate Fold Change AD+31/AD,[1],1.03
same,phenylpropionylglycine Fold Change AD+31/AD,[1],2.89
same,phosphoethanolamine Fold Change AD+31/AD,[1],1.05
same,pyridoxal Fold Change AD+31/AD,[1],1.22
same,pyridoxate Fold Change AD+31/AD,[1],1.49
same,pyruvate Fold Change AD+31/AD,[1],1.04
same,ribonate Fold Change AD+31/AD,[1],1.53
same,sphinganine-1-phosphate Fold Change AD+31/AD,[1],1.45
same,sphingosine Fold Change AD+31/AD,[1],1.35
same,stearidonate (18:4n3) Fold Change AD+31/AD,[1],0.87
same,suberate (octanedioate) Fold Change AD+31/AD,[1],1.33
same,sucrose Fold Change AD+31/AD,[1],2.83
same,tartronate (hydroxymalonate) Fold Change AD+31/AD,[1],0.99
same,taurine Fold Change AD+31/AD,[1],0.91
same,threonine Fold Change AD+31/AD,[1],1.08
same,tryptophan Fold Change AD+31/AD,[1],0.91
same,ursodeoxycholate Fold Change AD+31/AD,[1],0.23
same,"1,2-dipalmitoyl-GPC (16:0/16:0) Fold Change C+31/C",[2],1.26
same,1-arachidonoyl-GPC (20:4n6)* Fold Change C+31/C,[2],1.04
same,1-myristoylglycerol (14:0) Fold Change C+31/C,[2],0.59
same,1-oleoylglycerol (18:1) Fold Change C+31/C,[2],0.64
same,1-palmitoyl-2-arachidonoyl-GPC (16:0/20:4n6) Fold Change C+31/C,[2],1.11
same,1-palmitoyl-2-stearoyl-GPC (16:0/18:0) Fold Change C+31/C,[2],1.1
same,1-stearoyl-GPE (18:0) Fold Change C+31/C,[2],1.01
same,2-palmitoylglycerol (16:0) Fold Change C+31/C,[2],0.79
same,3-acetylphenol sulfate Fold Change C+31/C,[2],0.21
same,3-ethylphenylsulfate Fold Change C+31/C,[2],2.27
same,3-hydroxy-3-methylglutarate Fold Change C+31/C,[2],0.99
same,3-hydroxybutyrate (BHBA) Fold Change C+31/C,[2],1.83
same,3-hydroxypyridine sulfate Fold Change C+31/C,[2],0.72
same,3-indoxyl sulfate Fold Change C+31/C,[2],0.63
same,4-hydroxyhippurate Fold Change C+31/C,[2],0.42
same,4-hydroxyphenylpyruvate Fold Change C+31/C,[2],1.65
same,5-hydroxyindoleacetate Fold Change C+31/C,[2],0.83
same,5-oxoproline Fold Change C+31/C,[2],1.27
same,7-ketodeoxycholate Fold Change C+31/C,[2],1.33
same,"9,10-DiHOME Fold Change C+31/C",[2],0.65
same,10-heptadecenoate (17:1n7) Fold Change C+31/C,[2],0.51
same,10-nonadecenoate (19:1n9) Fold Change C+31/C,[2],0.6
same,10-undecenoate (11:1n1) Fold Change C+31/C,[2],0.75
same,15-methylpalmitate Fold Change C+31/C,[2],0.52
same,17-methylstearate Fold Change C+31/C,[2],0.62
same,N2-acetyllysine Fold Change C+31/C,[2],0.71
same,N-acetyl-3-methylhistidine* Fold Change C+31/C,[2],0.84
same,N-acetylmethionine Fold Change C+31/C,[2],1.6
same,N-acetylphenylalanine Fold Change C+31/C,[2],1.41
same,N-acetylserine Fold Change C+31/C,[2],1.09
same,N-carbamoylaspartate Fold Change C+31/C,[2],0.54
same,N-delta-acetylornithine Fold Change C+31/C,[2],1.42
same,N-palmitoyl-sphinganine (d18:0/16:0) Fold Change C+31/C,[2],1.08
same,N-stearoyl-sphingosine (d18:1/18:0)* Fold Change C+31/C,[2],1.12
same,acetylcarnitine Fold Change C+31/C,[2],1.65
same,alpha-tocopherol Fold Change C+31/C,[2],1.05
same,arabonate/xylonate Fold Change C+31/C,[2],0.83
same,asparagine Fold Change C+31/C,[2],1.48
same,beta-muricholate Fold Change C+31/C,[2],1.78
same,caffeic acid sulfate Fold Change C+31/C,[2],2.12
same,carnosine Fold Change C+31/C,[2],0.62
same,chenodeoxycholate Fold Change C+31/C,[2],0.67
same,choline phosphate Fold Change C+31/C,[2],1.53
same,creatine Fold Change C+31/C,[2],1.23
same,dihydroorotate Fold Change C+31/C,[2],2.98
same,dopamine sulfate (2) Fold Change C+31/C,[2],0.94
same,equol glucuronide Fold Change C+31/C,[2],0.18
same,ergothioneine Fold Change C+31/C,[2],0.68
same,erythritol Fold Change C+31/C,[2],1.06
same,erythronate* Fold Change C+31/C,[2],1.02
same,gamma-glutamylglutamate Fold Change C+31/C,[2],2.69
same,gamma-glutamylglutamine Fold Change C+31/C,[2],1.94
same,gamma-glutamylleucine Fold Change C+31/C,[2],1.86
same,gamma-glutamylmethionine Fold Change C+31/C,[2],2.24
same,gamma-glutamylphenylalanine Fold Change C+31/C,[2],1.84
same,gamma-glutamylthreonine Fold Change C+31/C,[2],2.07
same,gamma-glutamyltryptophan Fold Change C+31/C,[2],1.81
same,gamma-glutamyltyrosine Fold Change C+31/C,[2],2.33
same,glucuronate Fold Change C+31/C,[2],1.04
same,glutamate Fold Change C+31/C,[2],1.71
same,"glutathione, oxidized (GSSG) Fold Change C+31/C",[2],2.09
same,glycosyl-N-palmitoyl-sphingosine (d18:1/16:0) Fold Change C+31/C,[2],1.25
same,glycosyl-N-stearoyl-sphingosine (d18:1/18:0) Fold Change C+31/C,[2],0.76
same,gulonate* Fold Change C+31/C,[2],1.01
same,hexanoylglycine Fold Change C+31/C,[2],2.77
same,indoleacetylglycine Fold Change C+31/C,[2],0.57
same,isobutyrylcarnitine Fold Change C+31/C,[2],5.46
same,linoleate (18:2n6) Fold Change C+31/C,[2],0.67
same,margarate (17:0) Fold Change C+31/C,[2],0.6
same,methionine sulfoxide Fold Change C+31/C,[2],1.52
same,methylmalonate (MMA) Fold Change C+31/C,[2],0.87
same,o-cresol sulfate Fold Change C+31/C,[2],0.93
same,oleoylcarnitine Fold Change C+31/C,[2],1.42
same,palmitoleoylcarnitine* Fold Change C+31/C,[2],1.81
same,palmitoyl dihydrosphingomyelin (d18:0/16:0)* Fold Change C+31/C,[2],1.09
same,palmitoyl sphingomyelin (d18:1/16:0) Fold Change C+31/C,[2],1.05
same,palmitoyl-palmitoyl-glycerol (16:0/16:0) [1]* Fold Change C+31/C,[2],0.51
same,pentadecanoate (15:0) Fold Change C+31/C,[2],0.71
same,phenol sulfate Fold Change C+31/C,[2],0.59
same,phenylpropionylglycine Fold Change C+31/C,[2],3.88
same,phosphoethanolamine Fold Change C+31/C,[2],1.64
same,pyridoxal Fold Change C+31/C,[2],1.54
same,pyridoxate Fold Change C+31/C,[2],1.33
same,pyruvate Fold Change C+31/C,[2],1.2
same,ribonate Fold Change C+31/C,[2],1.07
same,sphinganine-1-phosphate Fold Change C+31/C,[2],2.52
same,sphingosine Fold Change C+31/C,[2],1.14
same,stearidonate (18:4n3) Fold Change C+31/C,[2],0.65
same,suberate (octanedioate) Fold Change C+31/C,[2],1.17
same,sucrose Fold Change C+31/C,[2],2.7
same,tartronate (hydroxymalonate) Fold Change C+31/C,[2],1.47
same,taurine Fold Change C+31/C,[2],1.26
same,threonine Fold Change C+31/C,[2],1.42
same,tryptophan Fold Change C+31/C,[2],1.12
same,ursodeoxycholate Fold Change C+31/C,[2],0.49
